Assay results from patent publication US20240034731A1, “AZA-QUINAZOLINE COMPOUNDS AND METHODS OF USE” (Iambic Therapeutics, Inc., priority 2022, published 2024).
Like-named read-outs stand apart in the source and are kept apart here.

How the values were obtained:
CDK1/Cyclin B1 = CDK1/Cyclin B1 (Homo sapiens (Human), UniProt P06493); experiment: CDK1/Cyclin B1 ADP-Glo Kinase Assay; format: biochemical
In short: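 Enzyme and inhibitor pre-incubated 30 min at room temperature before ATP/substrate addition; reaction run 90 min at room temperature. ADP formed measured by ADP-Glo luminescence; IC50 from a 4-parameter fit of fractional velocity versus inhibitor concentration.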

MCF-7 cells = experiment: Cell Growth Inhibition, MCF-7 (CellTiterGlo, 6 days); format: cell-based; details: Homo sapiens, MCF7, 144 h, MCF-7, 6-day treatment
In short: (§1)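 MCF-7 (ER+ breast adenocarcinoma) or CCNE1-amplified OVCAR-3 cells, 500/well in RPMI with 10% FBS, treated with half-log dilutions typically 10-10,000 nM for 6 days at 37 °C. CellTiterGlo 2.0 luminescence gave % growth inhibition versus control; IC50 by four-parameter variable-slope fit.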

CDK4/Cyclin D1 = CDK4/Cyclin D1 (Homo sapiens (Human), UniProt P11802); experiment: CDK4/Cyclin D1 CHEF Assay (AQT0258 peptide); format: biochemical; details: 200 uM ATP, read-out: CDK4/ CyclinD1 AQT IC50
In short: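 Sox-labelled peptide AQT0258 phosphorylation read as chelation-enhanced fluorescence (ex 360/em 485 nm) with Mg(II). Enzyme preincubated with inhibitor 30 min at 22°C, substrate added, 3 h at 22°C; IC50 from four-parameter fit of fractional velocity versus inhibitor concentration.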

CDK6/Cyclin D3 = CDK6/Cyclin D3 (Homo sapiens (Human), UniProt Q00534); experiment: CDK6/Cyclin D3 ADP-Glo Kinase Assay; format: biochemical; details: 100 uM ATP, read-out: CDK6/ CyclinD3 IC50
In short: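 Enzyme and inhibitor were pre-incubated for 30 min at room temperature before ATP/substrate was added. The kinase reaction ran 90 min at room temperature, and ADP formed was detected by ADP-Glo luminescence. IC50 was fitted with a 4-parameter equation to fractional velocity versus inhibitor concentration.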

CDK2/Cyclin E1 = CDK2/Cyclin E1 (Homo sapiens (Human), UniProt P24941); experiment: CDK2/Cyclin E1 Full length ADP-Glo Kinase Assay; format: biochemical; details: 20 uM ATP, read-out: CDK2/ CyclinE1 IC50
In short: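 Full-length human CDK2/cyclin E1 was preincubated 30 min at room temperature with inhibitor, then reacted 90 min with ATP-containing substrate solution. ADP formed was measured by ADP-Glo luminescence; IC50 from 4-parameter fit of fractional velocity versus inhibitor concentration.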

OVCAR-3 cells = experiment: Cell Growth Inhibition, OVCAR-3 (CellTiterGlo, 6 days); format: cell-based; details: Homo sapiens, 144 h, OVCAR-3, 6-day treatment
In short: as §1

[1] = ADP-Glo, 80 uM ATP, read-out: CDK1 Cyclin B1 IC50

Sequence of CDK1/Cyclin B1 (P06493 whole entry): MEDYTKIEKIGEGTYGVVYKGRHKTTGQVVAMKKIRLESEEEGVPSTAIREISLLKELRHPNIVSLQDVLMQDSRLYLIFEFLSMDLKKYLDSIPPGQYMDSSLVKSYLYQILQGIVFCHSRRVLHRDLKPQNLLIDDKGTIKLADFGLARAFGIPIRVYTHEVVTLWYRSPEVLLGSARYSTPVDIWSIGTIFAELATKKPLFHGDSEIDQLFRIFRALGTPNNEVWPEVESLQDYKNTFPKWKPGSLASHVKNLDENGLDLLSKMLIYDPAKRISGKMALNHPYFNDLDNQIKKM
Sequence of CDK1/Cyclin B1 (P14635 whole entry partner): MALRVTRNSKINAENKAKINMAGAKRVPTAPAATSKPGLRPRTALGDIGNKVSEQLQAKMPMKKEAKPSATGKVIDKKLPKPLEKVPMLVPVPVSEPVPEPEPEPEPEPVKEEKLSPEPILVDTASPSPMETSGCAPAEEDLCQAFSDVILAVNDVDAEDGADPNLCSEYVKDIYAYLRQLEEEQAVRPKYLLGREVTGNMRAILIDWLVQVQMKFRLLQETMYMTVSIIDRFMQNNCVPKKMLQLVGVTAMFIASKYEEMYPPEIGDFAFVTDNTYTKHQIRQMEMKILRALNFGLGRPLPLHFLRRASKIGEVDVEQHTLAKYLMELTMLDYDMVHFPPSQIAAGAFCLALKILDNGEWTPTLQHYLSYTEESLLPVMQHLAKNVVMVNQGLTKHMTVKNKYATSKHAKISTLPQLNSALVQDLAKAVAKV
Sequence of CDK6/Cyclin D3 (Q00534 whole entry): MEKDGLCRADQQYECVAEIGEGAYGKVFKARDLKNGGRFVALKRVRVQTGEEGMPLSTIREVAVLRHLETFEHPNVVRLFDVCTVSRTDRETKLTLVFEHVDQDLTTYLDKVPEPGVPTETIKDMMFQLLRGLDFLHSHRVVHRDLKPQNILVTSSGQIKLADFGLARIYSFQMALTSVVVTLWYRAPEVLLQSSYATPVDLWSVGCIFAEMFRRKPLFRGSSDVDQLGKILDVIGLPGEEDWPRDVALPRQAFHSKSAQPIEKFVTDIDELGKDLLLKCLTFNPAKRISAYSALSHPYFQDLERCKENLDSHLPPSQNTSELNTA
Sequence of CDK6/Cyclin D3 (P30281 whole entry partner): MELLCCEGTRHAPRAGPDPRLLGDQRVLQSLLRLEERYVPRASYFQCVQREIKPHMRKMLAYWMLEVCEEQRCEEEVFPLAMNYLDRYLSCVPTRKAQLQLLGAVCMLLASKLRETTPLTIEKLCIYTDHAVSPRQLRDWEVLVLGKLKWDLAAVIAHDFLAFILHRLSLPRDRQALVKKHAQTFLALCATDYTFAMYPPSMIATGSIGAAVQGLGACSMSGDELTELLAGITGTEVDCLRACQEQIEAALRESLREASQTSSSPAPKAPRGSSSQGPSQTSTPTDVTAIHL
Sequence of CDK4/Cyclin D1 (P11802 whole entry): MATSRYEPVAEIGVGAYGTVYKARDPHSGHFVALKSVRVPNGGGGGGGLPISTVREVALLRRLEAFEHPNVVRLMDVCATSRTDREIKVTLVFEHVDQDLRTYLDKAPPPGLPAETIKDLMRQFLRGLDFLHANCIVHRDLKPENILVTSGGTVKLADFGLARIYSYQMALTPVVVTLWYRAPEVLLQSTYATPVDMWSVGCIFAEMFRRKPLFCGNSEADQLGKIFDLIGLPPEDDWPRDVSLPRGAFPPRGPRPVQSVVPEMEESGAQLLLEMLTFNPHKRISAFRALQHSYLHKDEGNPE
Sequence of CDK4/Cyclin D1 (P24385 whole entry partner): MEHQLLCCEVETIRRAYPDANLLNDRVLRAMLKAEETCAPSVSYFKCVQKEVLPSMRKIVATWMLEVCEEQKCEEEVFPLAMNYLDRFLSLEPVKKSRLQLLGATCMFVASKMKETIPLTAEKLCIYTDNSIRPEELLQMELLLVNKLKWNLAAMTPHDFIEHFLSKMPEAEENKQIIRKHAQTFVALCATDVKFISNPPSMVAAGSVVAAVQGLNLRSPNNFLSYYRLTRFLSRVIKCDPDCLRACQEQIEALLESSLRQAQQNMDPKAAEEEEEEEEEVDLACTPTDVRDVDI

Row | SMILES | IC50 (CDK1/Cyclin B1; [1]) | IC50 (MCF-7 cells) | IC50 (CDK4/Cyclin D1) | IC50 (CDK6/Cyclin D3) | IC50 (CDK2/Cyclin E1) | IC50 (OVCAR-3 cells) | IC50 (CDK1/Cyclin B1)
1 | Cc1cc2cnc(NC3CCN(S(C)(=O)=O)CC3)nc2c(N2CC3(CNCC3(F)F)C2)n1 [Compound 85, 8-(8,8-difluoro-2,6-diazaspiro[3.4]octan-2-yl)-6-methyl-N-(1-(methylsulfonyl)piperidin-4-yl)pyrido[3,4-d]pyrimidin-2-amine] | < 200 nM | 500 to 2000 nM | < 200 nM | < 200 nM | < 200 nM | 500 to 2000 nM | –
2 | Cc1cc2cnc(N[C@@H]3CCOC[C@H]3O)nc2c(N2CC(O)(C3CC3)C2)n1 [Compound 86, 3-cyclopropyl-1-(2-(((3S,4R)-3-hydroxytetrahydro-2H-pyran-4-yl)amino)-6-methylpyrido[3,4-d]pyrimidin-8-yl)azetidin-3-ol] | > 2000 nM | > 2000 nM | < 200 nM | 200 to 500 nM | 200 to 500 nM | > 2000 nM | –
3 | Cc1cc2cnc(NC3CCN(S(=O)(=O)c4cnn(C)c4)CC3)nc2c(N2CC(F)(F)C3(CNC3)C2)n1 [Compound 89, 8-(8,8-difluoro-2,6-diazaspiro[3.4]octan-6-yl)-6-methyl-N-(1-((1-methyl-1H-pyrazol-4-yl)sulfonyl)piperidin-4-yl)pyrido[3,4-d]pyrimidin-2-amine] | < 200 nM | 500 to 2000 nM | < 200 nM | < 200 nM | < 200 nM | 200 to 500 nM | –
4 | Cc1cc2cnc(NC3CCN(S(C)(=O)=O)CC3)nc2c(N2CC(F)(F)C3(CNC3)C2)n1 [Compound 92, 8-(8,8-difluoro-2,6-diazaspiro[3.4]octan-6-yl)-6-methyl-N-(1-(methylsulfonyl)piperidin-4-yl)pyrido[3,4-d]pyrimidin-2-amine] | < 200 nM | 500 to 2000 nM | < 200 nM | < 200 nM | < 200 nM | 500 to 2000 nM | –
5 | Cc1cc2cnc(NC3CCN(S(=O)(=O)c4ccn(C)n4)CC3)nc2c(N2CC(F)(F)C3(CNC3)C2)n1 [Compound 94, 8-(8,8-difluoro-2,6-diazaspiro[3.4]octan-6-yl)-6-methyl-N-(1-((1-methyl-1H-pyrazol-3-yl)sulfonyl)piperidin-4-yl)pyrido[3,4-d]pyrimidin-2-amine] | < 200 nM | 500 to 2000 nM | < 200 nM | < 200 nM | < 200 nM | 200 to 500 nM | –
6 | Cc1cc2cnc(NC3CCN(S(C)(=O)=O)CC3)nc2c(N2CC(F)(F)C3(CN(C)C3)C2)n1 [Compound 96, 8-(8,8-difluoro-2-methyl-2,6-diazaspiro[3.4]octan-6-yl)-6-methyl-N-(1-(methylsulfonyl)piperidin-4-yl)pyrido[3,4-d]pyrimidin-2-amine] | < 200 nM | 200 to 500 nM | < 200 nM | < 200 nM | < 200 nM | 500 to 2000 nM | –
7 | Cc1cc2cnc(NC3CCN(S(=O)(=O)c4cnn(C)c4)CC3)nc2c(N2CC(F)(F)C3(CN(C)C3)C2)n1 [Compound 97, 8-(8,8-difluoro-2-methyl-2,6-diazaspiro[3.4]octan-6-yl)-6-methyl-N-(1-((1-methyl-1H-pyrazol-4-yl)sulfonyl)piperidin-4-yl)pyrido[3,4-d]pyrimidin-2-amine] | – | 500 to 2000 nM | < 200 nM | < 200 nM | < 200 nM | 200 to 500 nM | < 200 nM
8 | [2H]C([2H])([2H])N1CC2(CN(c3nc(C)cc4cnc(NC5CCN(S(=O)(=O)c6cnn(C)c6)CC5)nc34)CC2(F)F)C1 [Example 11, 8-(8,8-difluoro-2-(methyl-d3)-2,6-diazaspiro[3.4]octan-6-yl)-6-methyl-N-(1-((1-methyl-1H-pyrazol-4-yl)sulfonyl)piperidin-4-yl)pyrido[3,4-d]pyrimidin-2-amine] | – | 500 to 2000 nM | < 200 nM | < 200 nM | < 200 nM | 200 to 500 nM | < 200 nM
9 | Cc1cc2cnc(NC3CCN(S(=O)(=O)CC4CCCC4)CC3)nc2c(N2CC3(CCNC3)C2)n1 [Example 51, N-(1-((cyclopentylmethyl)sulfonyl)piperidin-4-yl)-6-methyl-8-(2,6-diazaspiro[3.4]octan-2-yl)pyrido[3,4-d]pyrimidin-2-amine] | 500 to 2000 nM | 500 to 2000 nM | < 200 nM | 200 to 500 nM | < 200 nM | 500 to 2000 nM | –

The next lines start with results.

Row | IC50 (CDK1/Cyclin B1; [1]) | IC50 (MCF-7 cells) | IC50 (CDK4/Cyclin D1) | IC50 (CDK6/Cyclin D3) | IC50 (CDK2/Cyclin E1) | IC50 (OVCAR-3 cells) | SMILES | IC50 (CDK1/Cyclin B1)
10 | 200 to 500 nM | > 2000 nM | < 200 nM | < 200 nM | < 200 nM | > 2000 nM | Cc1cc2cnc(Nc3ccc(CS(C)(=O)=O)cc3)nc2c(N2CC(O)(C3CC3)C2)n1 [Compound 83, 3-cyclopropyl-1-(6-methyl-2-((4-((methylsulfonyl)methyl)phenyl)amino)pyrido[3,4-d]pyrimidin-8-yl)azetidin-3-ol] | –
11 | 200 to 500 nM | 500 to 2000 nM | < 200 nM | < 200 nM | < 200 nM | 500 to 2000 nM | Cc1cc2cnc(NC3CCN(S(C)(=O)=O)CC3)nc2c(C2CC3(C2)CN(C)CCO3)n1 (stereo not drawn) [Compound 84, 6-methyl-8-(8-methyl-5-oxa-8-azaspiro[3.5]nonan-2-yl)-N-(1-(methylsulfonyl)piperidin-4-yl)pyrido[3,4-d]pyrimidin-2-amine] | –
12 | < 200 nM | 500 to 2000 nM | < 200 nM | < 200 nM | < 200 nM | 200 to 500 nM | Cc1cc2cnc(NC3CCN(S(=O)(=O)c4cnn(C)c4)CC3)nc2c(N2CC3(CCNCC3(F)F)C2)n1 [Compound 87, 8-(5,5-difluoro-2,7-diazaspiro[3.5]nonan-2-yl)-6-methyl-N-(1-((1-methyl-1H-pyrazol-4-yl)sulfonyl)piperidin-4-yl)pyrido[3,4-d]pyrimidin-2-amine] | –
13 | < 200 nM | 500 to 2000 nM | < 200 nM | < 200 nM | < 200 nM | 500 to 2000 nM | CS(=O)(=O)N1CCC(Nc2ncc3cc(C(F)F)nc(N4CC5(CCNCC5(F)F)C4)c3n2)CC1 [Compound 90, 8-(5,5-difluoro-2,7-diazaspiro[3.5]nonan-2-yl)-6-(difluoromethyl)-N-(1-(methylsulfonyl)piperidin-4-yl)pyrido[3,4-d]pyrimidin-2-amine] | –
14 | < 200 nM | 500 to 2000 nM | < 200 nM | < 200 nM | < 200 nM | 200 to 500 nM | Cc1cc2cnc(NC3CCN(S(C)(=O)=O)CC3)nc2c(N2CC(O)(C(F)F)C2)n1 [Compound 91, 3-(difluoromethyl)-1-(6-methyl-2-((1-(methylsulfonyl)piperidin-4-yl)amino)pyrido[3,4-d]pyrimidin-8-yl)azetidin-3-ol] | –
15 | < 200 nM | 500 to 2000 nM | < 200 nM | < 200 nM | < 200 nM | 500 to 2000 nM | Cc1cc2cnc(NC3CCN(S(C)(=O)=O)CC3)nc2c(C2CC(O)(C(F)F)C2)n1 (stereo not drawn) [Compound 93, 1-(difluoromethyl)-3-(6-methyl-2-((1-(methylsulfonyl)piperidin-4-yl)amino)pyrido[3,4-d]pyrimidin-8-yl)cyclobutan-1-ol] | –
16 | < 200 nM | 500 to 2000 nM | < 200 nM | < 200 nM | < 200 nM | 500 to 2000 nM | CCS(=O)(=O)N1CCC(Nc2ncc3cc(C)nc(N4CC(F)(F)C5(CNC5)C4)c3n2)CC1 [Compound 95, 8-(8,8-difluoro-2,6-diazaspiro[3.4]octan-6-yl)-N-(1-(ethylsulfonyl)piperidin-4-yl)-6-methylpyrido[3,4-d]pyrimidin-2-amine] | –
17 | 200 to 500 nM | 200 to 500 nM | < 200 nM | < 200 nM | < 200 nM | 200 to 500 nM | Cc1cc2cnc(NC3CCN(S(=O)(=O)C4CC4)CC3)nc2c(N2CC3(CCNC3)C2)n1 [Example 25, N-(1-(cyclopropylsulfonyl)piperidin-4-yl)-6-methyl-8-(2,6-diazaspiro[3.4]octan-2-yl)pyrido[3,4-d]pyrimidin-2-amine] | –
18 | > 2000 nM | 500 to 2000 nM | 200 to 500 nM | > 2000 nM | < 200 nM | > 2000 nM | Cc1cc2cnc(Nc3cc4c(cc3F)CN(S(C)(=O)=O)C4)nc2c(N2CC3(CCNC3)C2)n1 [Example 39, N-(6-fluoro-2-(methylsulfonyl)isoindolin-5-yl)-6-methyl-8-(2,6-diazaspiro [3.4]octan-2-yl)pyrido[3,4-d]pyrimidin-2-amine] | –
